Reference: PMC8999625, “Antiviral Effects of ABMA and DABMA against Influenza Virus In Vitro and In Vivo via Regulating the Endolysosomal Pathway and Autophagy” (International Journal of Molecular Sciences, 2022)
“Also recorded” adds a separate entry of the source. Structures can show the parent of a compound that is named as a salt.

Test system: A/HK/2671/2019 (H3N2)
Format: cell-based, influenza virus
Settings: for EC50: read-out: EC50 ± SD A/HK/2671/2019 (H3N2)

| SMILES | EC50 | antiviral activity against A/HK/2671/2019 (H3N2) |
| --- | --- | --- |
| CCOC(=O)C1=C[C@@H](OC(CC)CC)[C@H](NC(C)=O)[C@@H](N)C1 [Oseltamivir, Oseltamivir phosphate] | 1790 ± 640 nM | – |
| NC12CC3CC(CC(C3)C1)C2 [Amantadine, Amantadine hydrochloride] | > 100000 nM | did not show antiviral activity; also recorded: no significant protection |
| NC(=O)c1ncn([C@@H]2O[C@H](CO)[C@@H](O)[C@H]2O)n1 [Ribavirin, ribavirin] | 19800 ± 3260 nM | – |
| COc1ccc(Br)cc1CNC12CC3CC(CC(C3)C1)C2 [ABMA, 1-adamantyl (5-bromo-2-methoxybenzyl) amine] | 2830 ± 260 nM | – |
| COc1ccc(Br)cc1CNC12CC3CC(C)(CC(C)(C3)C1)C2 [DABMA, 1,3-dimethyl-1-adamantyl (5-bromo-2-methoxybenzyl) amine] | 2950 ± 270 nM | – |
